From patent publication US20050048127A1, “Small spherical particles of low molecular weight organic molecules and methods of preparation and use thereof” (priority 2003, published 2005)

Columns and labels:
[1] = Formation of small spherical particles from first/second solvent mixtures on glass slide under nitrogen flow, graded by polarized light microscope; type: physicochemical; parameters: key: (+) = predominantly small spherical particles; (+/−) = a mixture of small spherical particles and non-spherical particles; (−) = predominantly non-spherical particles; ppt = the steroid precipitated out during addition of the second solvent
Source text: The ability to form small spherical particles of two steroids, beclomethasone dipropionate (BDP) and fluticasone propionate (FP) was examined in matrix experiments using acetone, ethanol, methanol, and methyl ethyl ketone (MEK) individually as the first solvents and water and heptane individually as the second solvents. The amount of second solvent added to the first solvent/steroid solution was varied as 0%, 10%, 20%, 30%, and 40% (v/v). MEK is not miscible with water and methanol is not miscible with heptane, so those combinations were not included in the experiment.
Either BDP or FP was weighed into a large screw cap glass tube and the solvent of choice was added (w/v) to yield a final concentration of 2 mg/mL. The tubes were vortexed and sonicated to completely dissolve the steroid. The sealed tubes containing these solutions were used as stock solutions for subsequent mixture with the appropriate second solvent. Immediately prior to use, an appropriate amount of the second solvent was slowly added to the first solvent/steroid solution while mixing to avoid premature precipitation. After adding the second solvent, the solutions were visually examined to ensure that premature precipitation had not occurred.
A fixture was constructed such that a 0.125-inch diameter orifice nozzle was positioned 1.75 inches above a standard glass microscope slide. Nitrogen gas was allowed to flow at 5 liters per minute through the nozzle and over the slide such that the flow direction of the gas was perpendicular to the surface of the slide. One or two drops of the test solution were placed on the slide directly under the orifice, and the nitrogen flow continued until the slide was dry (one to three minutes depending on the solution composition). Each slide was then examined under a polarized light microscope (Leica EPISTAR, Buffalo, N.Y.) using incident lighting. Each slide was graded for the presence of predominantly small spherical particles (+), a mixture of small spherical particles and non-spherical particles (+/−), and predominantly non-spherical particles (−). Variations in size and size distribution were observed between different test solutions.

[2] = Particle morphology and size by scanning electron microscopy (SEM); type: physicochemical; conditions: broad distribution, some particles larger than upper value
Method: Particle morphology for the following examples was obtained using Scanning Electron Microscopy (SEM, FEI Quanta 200, Hilsboro, Oreg.). The sample was prepared for analysis by placing a small amount on carbon double-stick tape fixed to an aluminum sample mount. The sample was then sputter-coated using a Cressington sputter coater 108 Auto for 90 seconds and 20 mA. A second SEM instrument (Amray 1000, Bedford, Mass.) was used to obtain additional images of the small spherical particles, due to its higher resolution capabilities. Particle morphology for the following examples was obtained using Scanning Electron Microscopy (FEI Quanta 200, Hilsboro, Oreg.). FIG. 4 presents SEM of micronized budesonide starting material and FIG. 5 presents SEM of the resulting budesonide small spherical particles.

[3] = first solvent MEK, 0% second solvent (2 mg/mL stock solution)
[4] = first solvent acetone, 0% second solvent (2 mg/mL stock solution)
[5] = first solvent acetone, 10% heptane
[6] = first solvent acetone, 10% water
[7] = first solvent acetone, 20% heptane
[8] = first solvent acetone, 20% water
[9] = first solvent acetone, 30% heptane
[10] = first solvent acetone, 30% water
[11] = first solvent acetone, 40% heptane
[12] = first solvent acetone, 40% water
[13] = first solvent ethanol, 0% second solvent (2 mg/mL stock solution)
[14] = first solvent ethanol, 10% heptane
[15] = first solvent ethanol, 10% water
[16] = first solvent ethanol, 20% heptane
[17] = first solvent ethanol, 20% water
[18] = first solvent ethanol, 30% heptane
[19] = first solvent ethanol, 30% water
[20] = first solvent ethanol, 40% heptane
[21] = first solvent ethanol, 40% water
[22] = first solvent methanol, 0% second solvent (2 mg/mL stock solution)
[23] = first solvent methanol, 10% water
[24] = first solvent methanol, 20% water
[25] = first solvent methanol, 30% water
[26] = first solvent methanol, 40% water

Row | Structure (SMILES) | Formation of small spherical particles [1, 3] | Formation of small spherical particles ([1]; first solvent MEK, 10% heptane) | Formation of small spherical particles ([1]; first solvent MEK, 20% heptane) | Formation of small spherical particles ([1]; first solvent MEK, 30% heptane) | Formation of small spherical particles ([1]; first solvent MEK, 40% heptane) | Formation of small spherical particles [1, 4] | Formation of small spherical particles [1, 5] | Formation of small spherical particles [1, 6] | Formation of small spherical particles [1, 7] | Formation of small spherical particles [1, 8] | Formation of small spherical particles [1, 9] | Formation of small spherical particles [1, 10] | Formation of small spherical particles [1, 11] | Formation of small spherical particles [1, 12] | Formation of small spherical particles [1, 13] | Formation of small spherical particles [1, 14] | Formation of small spherical particles [1, 15] | Formation of small spherical particles [1, 16] | Formation of small spherical particles [1, 17] | Formation of small spherical particles [1, 18] | further results
1 | CCC(=O)OCC(=O)[C@@]1(OC(=O)CC)[C@@H](C)C[C@H]2[C@@H]3CCC4=CC(=O)C=C[C@]4(C)[C@@]3(Cl)[C@@H](O)C[C@@]21C [Beclomethasone dipropionate] | +/− | + | + | + | + | + | + | + | + | + | +/− | + | +/− | + | + | + | + | +/− | + | +/− | Formation of small spherical particles [1, 19]: +; Formation of small spherical particles [1, 20]: +/−; Formation of small spherical particles [1, 21]: +; Formation of small spherical particles [1, 22]: +; Formation of small spherical particles [1, 23]: +; Formation of small spherical particles [1, 24]: +; Formation of small spherical particles [1, 25]: +; Formation of small spherical particles [1, 26]: +
2 | CCC(=O)OCC(=O)[C@@]1(OC(=O)CC)[C@@H](C)C[C@H]2[C@@H]3CCC4=CC(=O)C=C[C@]4(C)[C@@]3(Cl)[C@@H](O)C[C@@]21C [micronized BDP starting material, beclomethasone dipropionate] |  |  |  |  |  |  |  |  |  |  |  |  |  |  |  |  |  |  |  |  | particle size distribution [2]: 5-50 microns
3 | CCC(=O)O[C@]1(C(=O)SCF)[C@H](C)C[C@H]2[C@@H]3C[C@H](F)C4=CC(=O)C=C[C@]4(C)[C@@]3(F)[C@@H](O)C[C@@]21C [Fluticasone propionate] | +/− | − | − | − | − | + | + | + | + | +/− | +/− | − | +/− | − | +/− | − | +/− | − | +/− | − | Formation of small spherical particles [1, 19]: −; Formation of small spherical particles [1, 20]: −; Formation of small spherical particles [1, 21]: −; Formation of small spherical particles [1, 22]: −; Formation of small spherical particles [1, 23]: −; Formation of small spherical particles [1, 24]: ppt; Formation of small spherical particles [1, 25]: ppt; Formation of small spherical particles [1, 26]: ppt
